From PMC11434100, “Biomimetic Metal–Organic Framework Gated Nanoplatform for Sonodynamic Therapy against Extensively Drug Resistant Bacterial Lung Infection” (Advanced Science, 2024) come the findings set out here.

Converted amounts (≈) assume the structure as drawn.

One test deals with XDR-AB. Nature of the test: Drug sensitivity test of clinical strains (Table S2). Type of test: cell-based, Acinetobacter baumannii. The note with it: value in brackets; for MIC: Acinetobacter baumannii.
The test system of another test is XDR-PA. The test is described as above. Type of test: cell-based, Pseudomonas aeruginosa. The following applies: value in brackets; for MIC: Pseudomonas aeruginosa.
In the next test the test system is XDR-Kp. The test is described as above. Type of test: cell-based, Klebsiella pneumoniae. The note with it: value in brackets; for MIC: Klebsiella pneumoniae.
The subject of a further test is XDR-E. coli. The test is described as above. Type of test: cell-based, Escherichia coli. The note with it: value in brackets; for MIC: Escherichia coli.
Test [1] relates to XDR-AB (clinically isolated XDR Acinetobacter baumannii). The test is described as follows: Minimum inhibitory concentration, broth dilution (Table S1). Type of test: cell-based. The following applies: CLSI guidelines, 10^5 CFU mL−1, 24 h, 37 °C, visible growth. The procedure: (§1) Four clinically isolated XDR strains were cultured in LB media at 37 °C with rotation (180 rpm) overnight. […] The bacterial concentration was adjusted to 10^5 CFU mL^−1.
In general terms: Broth dilution looks for growth in wells or tubes with falling amounts of substance.

The test system of test [2] is XDR-E. coli (clinically isolated XDR Escherichia coli). The description is as above. Type of test: cell-based. The note with it: CLSI guidelines, 10^5 CFU mL−1, 24 h, 37 °C, visible growth. The method, then: as §1
In test [3] the test system is XDR-Kp (clinically isolated XDR Klebsiella pneumoniae). The description is as above. The following applies: CLSI guidelines, 10^5 CFU mL−1, 24 h, 37 °C, visible growth. Type of test: cell-based. The method, then: as §1
Test [4] concerns XDR-PA (clinically isolated XDR Pseudomonas aeruginosa). The test is described as above. The following applies: CLSI guidelines, 10^5 CFU mL−1, 24 h, 37 °C, visible growth. Type of test: cell-based. The procedure: as §1

Turning to `NC[C@H]1O[C@H](O[C@H]2[C@H](O)[C@@H](O[C@H]3O[C@H](CO)[C@@H](O)[C@H](N)[C@H]3O)[C@H](N)C[C@@H]2N)[C@H](N)C[C@@H]1O` [Tobramycin], the MIC in the test on XDR-AB, in the test with XDR-PA, with XDR-Kp and against XDR-E. coli was no less than 16 µg/mL throughout.

With `C[C@@H](O)[C@H]1C(=O)N2C(C(=O)O)=C(SCCN=CN)C[C@H]12` [Imipenem], the MIC against XDR-AB, in the test on XDR-PA, against XDR-Kp and against XDR-E. coli was no less than 16 µg/mL throughout.

In the case of Polymyxin B [PMB], the MIC in test [1] stood at 32 µg/mL; in test [2], 16 µg/mL; in test [3], 16 µg/mL; in test [4], 8 µg/mL. Moreover, the “MIC (drug sensitivity test)” value in the test on XDR-PA and in the test with XDR-E. coli was 0.5 µg/mL each time.

For the compound `CO[C@@]1(NC(=O)C2SC(=C(C(N)=O)C(=O)O)S2)C(=O)N2C(C(=O)O)=C(CSc3nnnn3C)CS[C@@H]21` (some centres unmarked) [Cefotetan], the MIC with XDR-AB, with XDR-PA, in the test with XDR-Kp and in the test on XDR-E. coli was no less than 64 µg/mL throughout.

Consider `NCC[C@H](O)C(=O)N[C@@H]1C[C@H](N)[C@@H](O[C@H]2O[C@H](CN)[C@@H](O)[C@H](O)[C@H]2O)[C@H](O)[C@H]1O[C@H]1O[C@H](CO)[C@@H](O)[C@H](N)[C@H]1O` [Amikacin], for which the MIC against XDR-AB, against XDR-PA, in the test with XDR-Kp and against XDR-E. coli was no less than 64 µg/mL in each case.

As for `CN(C)c1cc(NC(=O)CNC(C)(C)C)c(O)c2c1C[C@H]1C[C@H]3[C@H](N(C)C)C(O)=C(C(N)=O)C(=O)[C@@]3(O)C(O)=C1C2=O` [Tigecycline], the MIC against XDR-AB is 0.38 µg/mL (≈ 0.649 µM).

On to `Cc1nnc(SCC2=C(C(=O)O)N3C(=O)[C@@H](NC(=O)Cn4cnnn4)[C@H]3SC2)s1` [Cefazolin], for which the MIC in the test on XDR-AB, in the test on XDR-PA, against XDR-Kp and in the test with XDR-E. coli was no less than 64 µg/mL throughout.

In the case of `CC(C)(O/N=C(\C(=O)N[C@@H]1C(=O)N2C(C(=O)[O-])=C(C[n+]3ccccc3)CS[C@H]12)c1csc(N)n1)C(=O)O` [Ceftazidime], the MIC in the test with XDR-AB, against XDR-PA, with XDR-Kp and in the test on XDR-E. coli was no less than 64 µg/mL each time.

With `C[C@H]1COc2c(N3CCN(C)CC3)c(F)cc3c(=O)c(C(=O)O)cn1c23` [Levofloxacin], the MIC is no less than 8 µg/mL against XDR-AB, no less than 8 µg/mL against XDR-PA, no less than 8 µg/mL against XDR-Kp and 11 µg/mL (≈ 30.4 µM) against XDR-E. coli.

Turning to `CO/N=C(\C(=O)N[C@@H]1C(=O)N2C(C(=O)[O-])=C(C[N+]3(C)CCCC3)CS[C@H]12)c1csc(N)n1` [Cefepime], the MIC with XDR-AB, in the test with XDR-PA, with XDR-Kp and against XDR-E. coli was no less than 64 µg/mL each time.

Consider Gentamycin, for which the “MIC (drug sensitivity test)” value against XDR-AB, in the test on XDR-PA, in the test on XDR-Kp and in the test on XDR-E. coli was “>= 16 µg mL-1” in each case.

As to `CC1(C)S[C@@H]2[C@H](NC(=O)[C@H](N)c3ccccc3)C(=O)N2[C@H]1C(=O)O` [Ampicillin], the MIC against XDR-AB, against XDR-PA, against XDR-Kp and against XDR-E. coli was no less than 32 µg/mL in each case.

By MIC is commonly meant the least concentration at which growth counts as inhibited.
